Test results as given in patent US9387221B2, “SDF-1 binding nucleic acids and the use thereof in cancer treatment” (NOXXON Pharma AG, priority 2010, dated 2016).
{PEG40k} = 40 kDa polyethylene glycol

Test system: Luc+/GFP+ MM.1S cells
Test: Multiple myeloma animal model in SCID mice
Format: in vivo
From the text: The SDF-1/CXCR4 axis plays a major role in homing and trafficking of multiple myeloma (abbr. MM) cells to the bone marrow (abbr. BM). Therefore, de-adhesion of MM cells from the surrounding BM milieu through SDF-1 inhibition enhances MM sensitivity to therapeutic agents. Azab et al. published a protocol to test the CXCR4 inhibitor AMD3100 potency to disrupt the interaction of MM cells with the BM environment in vivo that affects localization MM cells [, which in turn enhances the sensitivity of MM cells to chemotherapy. […] Based on this protocol (Azab et al. 2009) the SDF-1 binding Spiegelmer NOX-A12 is tested for its potency to disupt the interaction of MM cells with the BM environment in vivo thereby enhancing the sensitivity of the MM cells to therapy.
For the MM animal model severe combined immunodeficient (SCID) mice are used whereby Luc+/GFP+ MM.1S cells (2×10^6/mouse) are injected into the tail vein of SCID mice. After 3 to 4 weeks, sufficient tumor progression is detected by bioluminescence imaging (for protocol see Azab et al. 2009). […]

5′-40 kDa-PEG-GCGUGGUGUGAUCUAGAUGUAUUGGCUGAUCCUAGUCAGGUACGC (5' {PEG40k}, sugars by position and backbone not given here) [NOX-A12]
tumor growth (in vivo bioluminescence) (NOX-A12 20 mg/kg s.c. every other day together with bortezomib 0.5 mg/kg i.p. twice a week): reduction of tumor growth | MM cell mobilization (ex vivo flow cytometry) (SCID mice, 20 mg/kg NOX-A12 subcutaneous every other day): MM cell mobilization from bone marrow to the blood
